Experimental data published in patent US8114453B2, “Synergistically heat stable oil media having eicosa pentanoic acid (EPA) and docosa hexaenoic acid (DHA)” (Recon Oil Industries Private Limited, priority 2005, dated 2012).

Legend:
[1] = clinical trial, reported in background; cited from earlier work
[2] = Fatty acid composition of oils before and after heating (air incorporated by stirring) by Gas Liquid Chromatography; format: physicochemical; conditions: from the fish oil source, heated with air incorporated
Text: The heat stability of the highly unsaturated and easily oxidisable EPA/DHA in the oil blend of the invention, EPA/DHA from available sources of enriched fish oil was blended with groundnut oil in various proportions and the stability of the formulations tested is importantly to further confirm the unexpected and synergistic heat stability achieved by the oil formulation of the invention incorporating the EPA/DHA, oil blends with varying amount of active benefit agent EPA/DHA heated from ambient to upto 220 deg.C were tested. To maximize the process of deterioration, apart from heating at 180 deg.C, 200 deg.C and 220 deg. C., air was incorporated during heating by using a magnetic stirrer.

CC/C=C\C/C=C\C/C=C\CCCCCCCC(=O)O [ALNA, Alpha linolenic acid]
Effect on triglyceride levels [1]: not effective to reduce triglyceride levels

CC/C=C\C/C=C\C/C=C\C/C=C\C/C=C\C/C=C\CCC(=O)O [DHA, Docosa Hexaenoic Acid]
Heat stability of the fatty acid [2]: heat stable even at temperatures of up to 220 deg. C.

CC/C=C\C/C=C\C/C=C\C/C=C\C/C=C\CCCC(=O)O [EPA, Eicosa Pentaenoic Acid]
Heat stability of the fatty acid [2]: heat stable even at temperatures of up to 220 deg. C.
